Read-outs that look alike come from different tables or passages of the source.
Tests used:
IMP-1 = IMP-1 (Serratia marcescens, UniProt P52699); assay: biochemical; assay type: biochemical
Outline: (§1)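 Class B activity is measured in the presence of compound by fluorescence with CCF2-FA after a 2-hour incubation at 25° C. IC50 is taken from a 4-parameter fit of semi-logarithmic dose-response data.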

NDM-1 = NDM-1 (Klebsiella pneumoniae, UniProt C7C422); assay: biochemical; assay type: biochemical; conditions: CCF2-FA substrate, 2 hours at 25° C; read-out: NDM-1 IC50
NDM-1, sequence (C7C422 whole entry, looked up, species assumed): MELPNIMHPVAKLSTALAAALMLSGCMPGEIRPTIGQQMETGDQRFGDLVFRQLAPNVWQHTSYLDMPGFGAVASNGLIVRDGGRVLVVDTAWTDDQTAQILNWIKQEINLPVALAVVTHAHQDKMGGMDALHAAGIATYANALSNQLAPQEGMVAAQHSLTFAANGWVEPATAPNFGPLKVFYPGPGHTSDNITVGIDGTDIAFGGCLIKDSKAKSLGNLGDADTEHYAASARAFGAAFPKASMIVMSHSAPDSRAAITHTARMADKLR
Outline: as §1

VIM-1 = VIM-1 (Pseudomonas aeruginosa (strain ATCC 15692 / DSM 22644 / CIP 104116 / JCM 14847 / LMG 12228 / 1C / PRS 101 / PAO1), UniProt A0A0F7KYQ8); assay: biochemical; conditions: CCF2-FA substrate, 2 hours at 25° C
Outline: as §1

[1] = system: Escherichia coli expressing NDM-1 (CLB30005, CLB30016); assay type: cell-based; conditions: with imipenem 1 μg/ml; 95% inhibition of bacterial growth
Outline: (§2)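 Clinical strains grown overnight on blood agar, then diluted 1:100 in 1.1× CAMHB and exposed to test compound with imipenem at 1 μg/ml. Incubation was 22–24 h at 35° C; growth was read by absorbance to find the compound concentration restoring imipenem susceptibility.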

[2] = system: Klebsiella pneumoniae expressing VIM-1 (IHMA599644); assay type: cell-based; conditions: with imipenem 1 μg/ml; 95% inhibition of bacterial growth
Outline: as §2

[3] = system: Serratia marcescens expressing IMP-1 (CL5741); assay type: cell-based; conditions: with imipenem 1 μg/ml; 95% inhibition of bacterial growth
Outline: as §2

[4] = system: P. aeruginosa expressing IMP-1, efflux+ (MB9798); assay type: cell-based, Pseudomonas aeruginosa; conditions: for P. aeruginosa expressing IMP-1, efflux+ (MB9798) MITC95: imipenem at 2 μg/mL, in the presence of a class A, C, D serine β-lactamase inhibitor closely related to relebactam; for Efflux ratio: ratio MITC95 PA_9798/MITC95 PA_9799
Source text: (§3) The strain background is Pseudomonas aeruginosa PAO1.

[5] = system: P. aeruginosa expressing IMP-1, efflux− (MB9799); assay: Efflux: concentration of MBL inhibitor which restores susceptibility to imipenem; assay type: cell-based, Pseudomonas aeruginosa; conditions: imipenem at 2 μg/mL, in the presence of a class A, C, D serine β-lactamase inhibitor closely related to relebactam
Source text: as §3

[6] = CCF2-FA substrate, 2 hours at 25° C, read-out: IMP-1 IC50

IMP-1, sequence (P52699 whole entry, looked up, species assumed): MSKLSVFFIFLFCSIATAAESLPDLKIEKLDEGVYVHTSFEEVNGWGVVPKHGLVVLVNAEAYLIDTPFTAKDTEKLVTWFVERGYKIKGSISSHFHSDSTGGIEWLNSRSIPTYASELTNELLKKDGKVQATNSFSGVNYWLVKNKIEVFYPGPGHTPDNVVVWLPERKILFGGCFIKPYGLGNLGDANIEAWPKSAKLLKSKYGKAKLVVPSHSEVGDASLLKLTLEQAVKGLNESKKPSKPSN

SMILES	IC50 (IMP-1; [6])	IC50 (NDM-1)	IC50 (VIM-1)	Escherichia coli expressing NDM-1 (CLB30016) MITC95 [1]	Klebsiella pneumoniae expressing VIM-1 (IHMA599644) MITC95 [2]	Serratia marcescens expressing IMP-1 (CL5741) MITC95 [3]	P. aeruginosa expressing IMP-1, efflux+ (MB9798) MITC95 [4]	Efflux ratio [4]	P. aeruginosa expressing IMP-1, efflux− (MB9799) MITC95 [5]	IC50 (IMP-1)
NS(=O)(=O)c1c([S+]([O-])C2CCNCC2)ccc(-c2ccc(C3CCNCC3)cc2)c1-c1nnn[nH]1 (stereo not drawn) [Example 227, 4′-(piperidin-4-yl)-4-(piperidin-4-ylsulfinyl)-2-(1H-tetrazol-5-yl)-[1,1′-biphenyl]-3-sulfonamide]	5900 pM	1950 pM	1180 pM	3.125 µM	6.25 µM	6.25 µM	3.125 µM	2.00	1.563 µM	–
NS(=O)(=O)c1c(S(=O)(=O)C2CCNCC2)ccc(-c2ccc(C3CCNCC3)cc2)c1-c1nnn[nH]1 [Example 228, 4′-(piperidin-4-yl)-4-(piperidin-4-ylsulfonyl)-2-(1H-tetrazol-5-yl)-[1,1′-biphenyl]-3-sulfonamide]	521 pM	985 pM	314 pM	1.563 µM	3.125 µM	3.125 µM	0.7813 µM	1.00	0.7813 µM	–
Cn1cc(C(=O)C(F)(F)F)c2c(-c3ccc(S(=O)(=O)C4CNC4)c(S(N)(=O)=O)c3-c3nnn[nH]3)cccc21 [Example 229, 6-(azetidin-3-ylsulfonyl)-3-(1-methyl-3-(2,2,2-trifluoroacetyl)-1H-indol-4-yl)-2-(1H-tetrazol-5-yl)benzenesulfonamide]	–	139 pM	474 pM	6.25 µM	12.5 µM	6.25 µM	25 µM	4.00	6.25 µM	1740 pM
COc1ccc(Cc2cc3c(-c4ccc(S(=O)(=O)C5CNC5)c(S(N)(=O)=O)c4-c4nnn[nH]4)cccc3n2C)cc1 [Example 230, 6-(azetidin-3-ylsulfonyl)-3-(2-(4-methoxybenzyl)-1-methyl-1H-indol-4-yl)-2-(1H-tetrazol-5-yl)benzenesulfonamide]	436 pM	110 pM	356 pM	6.25 µM	25 µM	6.25 µM	100 µM	32.00	3.125 µM	–
COc1ccc(Cc2cc3c(-c4ccc(S(=O)(=O)C5CNC5)c(S(N)(=O)=O)c4-c4nnn[nH]4)cccc3[nH]2)cc1 [Example 231, 6-(azetidin-3-ylsulfonyl)-3-(2-(4-methoxybenzyl)-1H-indol-4-yl)-2-(1H-tetrazol-5-yl)benzenesulfonamide]	717 pM	102 pM	558 pM	6.25 µM	12.5 µM	6.25 µM	25 µM	8.00	3.125 µM	–
Nc1nc2c(-c3ccc(S(=O)(=O)c4ccccc4)c(S(N)(=O)=O)c3-c3nnn[nH]3)cccc2s1 [Example 232, 3-(2-aminobenzo[d]thiazol-4-yl)-6-(phenylsulfonyl)-2-(1H-tetrazol-5-yl)benzenesulfonamide]	586 pM	583 pM	539 pM	6.25 µM	12.5 µM	3.125 µM	12.5 µM	8.00	1.563 µM	–
Nc1nc2c(-c3ccc(S(=O)(=O)c4ccccn4)c(S(N)(=O)=O)c3-c3nnn[nH]3)cccc2s1 [Example 233, 3-(2-aminobenzo[d]thiazol-4-yl)-6-(pyridin-2-ylsulfonyl)-2-(1H-tetrazol-5-yl)benzenesulfonamide]	203 pM	32.4 pM	113 pM	3.125 µM	12.5 µM	3.125 µM	12.5 µM	8.00	1.563 µM	–

Reference: patent US10227331B2 (priority 2015, dated 2019)
